Data on seven compounds can be found in ChEMBL document CHEMBL5512673, “Secondary Structure Stabilization of Macrocyclic Antimicrobial Peptides via Cross-Link Swapping” (J Med Chem, 2024).

One series deals with Trypsin (Homo sapiens, UniProt P07477+P07478+P35030). The series can be described thus: Stability of compound in PBS at […] assessed as trypsin (unknown origin)-mediated drug degradation measured after 3 to 60 mins using TAMRA-labelled compound by HPLC analysis. In kind it is ADME, protein assay. Conditions: buffer, time 3-60 min.
For series [1], the system named is Escherichia coli. The series can be described thus: Antibacterial activity against Escherichia coli assessed as reduction in bacterial cell viability incubated for 24 hrs by nutrient agar plate method. In kind it is functional, organism-based.
For series [2], the system named is Staphylococcus epidermidis. The series can be described thus: Antibacterial activity against Staphylococcus epidermidis assessed as reduction in bacterial cell viability incubated for 24 hrs by nutrient agar plate method. It counts as functional, organism-based.
Series [3] concerns RAW264.7. The experiment in a line: Anti-inflammatory activity in mouse RAW264.7 cells assessed as reduction in LPS-induced IL-1beta production at 50 uM incubated for 24 hrs by ELISA. In kind it is functional, cell-based. On the technique in general: An ELISA detects its analyte on a solid surface through an enzyme-linked reagent.
Series [4] deals with RAW264.7. The series can be described thus: Effect on IL-10 release in mouse RAW264.7 cells at 50 uM incubated for 24 hrs by ELISA. It counts as functional, cell-based.
Series [5] has as its system RAW264.7. The experiment in a line: Upregulation of IL-1beta production in mouse RAW264.7 cells at 50 uM incubated for 24 hrs by ELISA. In kind it is functional, cell-based.
Series [6] deals with Staphylococcus epidermidis. The experiment in a line: Antibacterial activity against Staphylococcus epidermidis assessed as inhibition of bacterial growth incubated for 24 hrs by nutrient agar plate method. In kind it is functional.
The test system of series [7] is RAW264.7. The experiment in a line: Anti-inflammatory activity in mouse RAW264.7 cells assessed as reduction in LPS-induced IL-10 production at 50 uM incubated for 24 hrs by ELISA. In kind it is functional, cell-based.
Series [8] in a line: Aggregation property of compound in aqueous solution assessed as critical micelle concentration by dynamic light scattering analysis. Conditions: buffer. In kind it is physicochemical.
Series [9] has as its system Escherichia coli. The series can be described thus: Antibacterial activity against Escherichia coli NEB 5alpha assessed as aggregation of bacteria into flakes at 2 to 50 uM incubated for 4 hrs by bacterial flocculation assay. In kind it is functional, organism-based. Conditions: dose 2-50 µM.
The test system of series [10] is Bacillus subtilis. The experiment in a line: Antibacterial activity against Bacillus subtilis assessed as reduction in bacterial cell viability incubated for 24 hrs by nutrient agar plate method. It counts as functional, organism-based.
In series [11] the test system is Bacillus subtilis. The experiment in a line: Antibacterial activity against Bacillus subtilis ATCC 6051 assessed as aggregation of bacteria into flakes at 2 to 50 uM incubated for 4 hrs by bacterial flocculation assay. The settings on record: dose 2-50 µM. It counts as functional, organism-based.
Series [12] has as its system RAW264.7. The series can be described thus: Cytotoxicity against mouse RAW264.7 cells assessed as reduction in cell viability at 100 uM incubated for 24 hrs by MTS assay. Conditions: raw264.7, 24 h. It counts as toxicity, cell-based. In general terms: Formazan colour is commonly taken as a measure of viable cells.
Series [13] relates to Bacillus subtilis. The experiment in a line: Antibacterial activity against Bacillus subtilis assessed as inhibition of bacterial growth incubated for 24 hrs by nutrient agar plate method. It counts as functional.
Series [14] deals with Escherichia coli. The experiment in a line: Antibacterial activity against Escherichia coli assessed as inhibition of bacterial growth incubated for 24 hrs by nutrient agar plate method. In kind it is functional.
Series [15] relates to Micrococcus luteus. The series can be described thus: Antibacterial activity against Micrococcus luteus assessed as inhibition of bacterial growth incubated for 24 hrs by nutrient agar plate method. It counts as functional.
In series [16] the test system is Micrococcus luteus. The experiment in a line: Antibacterial activity against Micrococcus luteus assessed as reduction in bacterial cell viability incubated for 24 hrs by nutrient agar plate method. In kind it is functional, organism-based.

In brackets after ≈: the same amount, converted by molar mass. Activity calls are given as the source filed them. The rule behind the calls is not given here. Bridge positions count the residues as written; N and C are the ends. Square brackets hold non-standard residues; d marks the D form. Peptide text beside a SMILES is read from it. Dab = NCC[C@H](N)C(=O)O; Dap = NC[C@H](N)C(=O)O A value given as a limit tells only on which side of the number the result lay.

`CN(C)c1ccc2c(-c3ccc(C(=O)N[C@@H](Cc4ccc(O)cc4)C(=O)NCC(=O)N[C@@H](CCCNC(=N)N)C(=O)N[C@@H](CCCCN)C(=O)N[C@@H](CCCCN)C(=O)N[C@@H](CCCNC(=N)N)C(=O)N[C@@H](CCCNC(=N)N)C(=O)N[C@@H](CCC(N)=O)C(=O)N[C@@H](CCCNC(=N)N)C(=O)N[C@@H](CCCNC(=N)N)C(=O)N[C@@H](CCCNC(=N)N)C(=O)O)cc3C(=O)[O-])c3ccc(=[N+](C)C)cc-3oc2c1`: the Stability entry on Trypsin is “Unstable”.

For `CC[C@H](C)[C@@H]1NC(=O)[C@H](CCCNC(=N)N)NC(=O)[C@H](Cc2ccccc2)NC(=O)[C@H](CCCCN)NC(=O)[C@H](Cc2ccccc2)NC(=O)[C@H](CCCNC(=N)N)NC(=O)[C@@H](N)CSSC[C@@H](C(N)=O)NC(=O)[C@H]([C@@H](C)CC)NC(=O)[C@H](C(C)C)NC1=O` (H-CRFKFRIVIC-NH2; disulfide 1-10), the IC50 (commonly the concentration that gives 50% inhibition) was found to be 32.2 µM with Escherichia coli [1], 8.5 µM in series [2] and 461 µM in the series with Bacillus subtilis [10]. Also, the result with RAW264.7 [3], in the series on RAW264.7 [4], in the series with RAW264.7 [5], in the series with RAW264.7 [7], in the series with Escherichia coli [9] and in the series on Bacillus subtilis [11] was Active. The values for the minimal inhibitory concentration (MIC) (in series [6]; in the series on Bacillus subtilis [13]; in the series with Escherichia coli [14]) were 50 µM (≈ 64.1 µg/mL), 100 µM (≈ 128 µg/mL) and 80 µM (≈ 103 µg/mL), respectively. Further, the CMC in [8] came to 4.5 µM. In addition, in the series with RAW264.7 [12], the Activity result is “Non-Toxic”.

Regarding `CC[C@H](C)[C@@H]1NC(=O)[C@H](CCCNC(=N)N)NC(=O)[C@H](Cc2ccccc2)NC(=O)[C@H](CCCCN)NC(=O)[C@H](Cc2ccccc2)NC(=O)[C@H](CCCNC(=N)N)NC(=O)[C@@H](N)CCC(=O)NCC[C@@H](C(N)=O)NC(=O)[C@H]([C@@H](C)CC)NC(=O)[C@H](C(C)C)NC1=O` (H-ERFKFRIVI[Dab]-NH2; lactam 1-10), the MIC – broadly, the lowest concentration that inhibits growth of the organism – with Micrococcus luteus [15] is 80 µM (≈ 103 µg/mL); in [6] it was 20 µM (≈ 25.8 µg/mL); in the series with Bacillus subtilis [13], 60 µM (≈ 77.3 µg/mL); in the series with Escherichia coli [14], 40 µM (≈ 51.5 µg/mL). For the same compound, the IC50 with Escherichia coli [1] turned out to be 8.5 µM; in series [2], 3.5 µM; in the series on Micrococcus luteus [16], 11.1 µM; in the series with Bacillus subtilis [10], 15 µM. The outcome with RAW264.7 [3] and with RAW264.7 [7] was inactive. Besides, the outcome in the series with RAW264.7 [4], with RAW264.7 [5], in the series on Escherichia coli [9] and in the series with Bacillus subtilis [11] was Active. Further, in [8], the CMC was > 100 µM. The Activity result in the series on RAW264.7 [12] is “Non-Toxic”.

On to `CC[C@H](C)[C@@H]1NC(=O)[C@H](CCCNC(=N)N)NC(=O)[C@H](Cc2ccccc2)NC(=O)[C@H](CCCCN)NC(=O)[C@H](Cc2ccccc2)NC(=O)[C@H](CCCNC(=N)N)NC(=O)[C@@H](N)CCC(=O)NC[C@@H](C(N)=O)NC(=O)[C@H]([C@@H](C)CC)NC(=O)[C@H](C(C)C)NC1=O` (H-ERFKFRIVI[Dap]-NH2; lactam 1-10), for which the 50% inhibitory concentration (IC50) in the series on Escherichia coli [1] stood at 41.5 µM; in series [2] it was 10.2 µM; in the series on Bacillus subtilis [10], 38.5 µM. Also, the result in the series with RAW264.7 [3], with RAW264.7 [4], with RAW264.7 [5], in the series on RAW264.7 [7], with Escherichia coli [9] and in the series on Bacillus subtilis [11] was Active. In addition, the MIC stood at 40 µM (≈ 51 µg/mL) in [6], 100 µM (≈ 127 µg/mL) with Bacillus subtilis [13] and 80 µM (≈ 102 µg/mL) in the series with Escherichia coli [14]. In series [8], the CMC is 10.8 µM. Besides, the Activity entry in the series on RAW264.7 [12] was “Non-Toxic”.

`CC[C@H](C)[C@@H]1NC(=O)[C@H](CCCNC(=N)N)NC(=O)[C@H](Cc2ccccc2)NC(=O)[C@H](CCCCN)NC(=O)[C@H](Cc2ccccc2)NC(=O)[C@H](CCCNC(=N)N)NC(=O)[C@@H](N)CCNC(=O)CC[C@@H](C(N)=O)NC(=O)[C@H]([C@@H](C)CC)NC(=O)[C@H](C(C)C)NC1=O` (H-[Dab]RFKFRIVIE-NH2; lactam 1-10): the minimum inhibitory concentration (MIC) amounted to 80 µM (≈ 103 µg/mL) in the series on Micrococcus luteus [15], 20 µM (≈ 25.8 µg/mL) in series [6], 60 µM (≈ 77.3 µg/mL) in the series with Bacillus subtilis [13] and 40 µM (≈ 51.5 µg/mL) in the series on Escherichia coli [14]. Further, the IC50 was determined as 10.7 µM in the series with Escherichia coli [1], 3.9 µM in series [2], 18 µM in the series on Micrococcus luteus [16] and 15.4 µM in the series on Bacillus subtilis [10]. For the same compound, the outcome with RAW264.7 [3] and in the series on RAW264.7 [7] was inactive. For the same compound, the result with RAW264.7 [4], with RAW264.7 [5], with Escherichia coli [9] and in the series with Bacillus subtilis [11] was Active. Further, in series [8], the CMC was > 100 µM. Moreover, the Activity result in the series with RAW264.7 [12] is reported as “Non-Toxic”.

With `CC[C@H](C)[C@@H]1NC(=O)[C@H](CCCNC(=N)N)NC(=O)[C@H](Cc2ccccc2)NC(=O)[C@H](CCCCN)NC(=O)[C@H](Cc2ccccc2)NC(=O)[C@H](CCCNC(=N)N)NC(=O)[C@@H](N)CNC(=O)CC[C@@H](C(N)=O)NC(=O)[C@H]([C@@H](C)CC)NC(=O)[C@H](C(C)C)NC1=O` (H-[Dap]RFKFRIVIE-NH2; lactam 1-10), the 50% inhibitory concentration (IC50) in the series on Escherichia coli [1] stood at 35.9 µM; in series [2], 7.2 µM; in the series on Bacillus subtilis [10], 36.2 µM. For the same compound, the outcome with RAW264.7 [3], in the series on RAW264.7 [4], in the series on RAW264.7 [5], with RAW264.7 [7], with Escherichia coli [9] and with Bacillus subtilis [11] was Active. Besides, the MIC in [6] amounted to 40 µM (≈ 51 µg/mL); in the series with Bacillus subtilis [13] it was 100 µM (≈ 127 µg/mL); in the series on Escherichia coli [14] it was 100 µM (≈ 127 µg/mL). Besides, the CMC in series [8] came to 2.3 µM. Besides, the Activity result in the series with RAW264.7 [12] is “Non-Toxic”.

With `CC1(C)S[C@@H]2[C@H](NC(=O)[C@H](N)c3ccccc3)C(=O)N2[C@H]1C(=O)O` [AMPICILLIN], the minimum inhibitory concentration (MIC) was determined as 3.1 µM (≈ 1.08 µg/mL) in the series with Micrococcus luteus [15], 50 µM (≈ 17.5 µg/mL) in [6], 25 µM (≈ 8.74 µg/mL) in the series on Bacillus subtilis [13] and 12.5 µM (≈ 4.37 µg/mL) in the series on Escherichia coli [14]. Besides, the IC50 with Escherichia coli [1] is 1.5 µM; in [2], 8.5 µM; with Micrococcus luteus [16], 1.1 µM; in the series on Bacillus subtilis [10], 1 µM.
